# Test results taken from patent US4595700A, “Thiol based collagenase inhibitors” (G. D. Searle & Co., priority 1985, dated 1986).
# Where “and” joins values, the source holds several entries; their conditions need not be identical. Identical values can stand only once.
# Biological target: T1, Human Rheumatoid Synovial collagenase (Homo sapiens, UniProt P03956)
# T1 construct: from tissue; host or cells: rheumatoid synovium (tissue or synovial cell culture not distinguished)
# T1 sequence (P03956 100-469): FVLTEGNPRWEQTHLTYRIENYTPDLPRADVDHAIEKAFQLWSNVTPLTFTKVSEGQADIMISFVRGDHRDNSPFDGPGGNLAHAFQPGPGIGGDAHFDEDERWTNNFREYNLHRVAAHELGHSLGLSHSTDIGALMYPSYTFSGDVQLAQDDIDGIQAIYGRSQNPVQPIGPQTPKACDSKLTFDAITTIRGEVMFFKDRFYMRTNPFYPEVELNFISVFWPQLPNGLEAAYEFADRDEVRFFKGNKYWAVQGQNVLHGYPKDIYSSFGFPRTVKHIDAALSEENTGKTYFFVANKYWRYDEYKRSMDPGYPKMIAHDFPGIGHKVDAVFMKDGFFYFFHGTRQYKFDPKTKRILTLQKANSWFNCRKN
# Assay: inhibition of collagenase (acetyl 14C collagen digestion, Cawston and Barrett)
# Type: biochemical
# Settings: Table 2; 37° C., 16 hours, native acetyl 14C collagen, pH 7.6; read-out: IC50 (μM) Human Rheumatoid Synovial collagenase
# Protocol: This was determined following the procedure of Cawston and Barrett, Anal. Biochem., 99, 340-345 (1979) whereby the 1 mM of the inhibitor being tested or dilutions thereof are incubated at 37° C. for 16 hours with native collagen and collagenase (buffered with Tris HCl--CaCl2; pH 7.6). The collagen is acetyl ^14 C collagen. The samples are centrifuged to sediment undigested collagen and an aliquot of the radiactive supernatant removed for assay on a scintillation counter as a measure of hydrolysis. The collagenase activity in the presence of 1 mM inhibitor, or a dilution thereof, is compared to activity in a control devoid of inhibitor and the results reported as that inhibitor concentration effecting 50% inhibition of the collagenase.
row,IC50,SMILES
1,1.2 µM,"CCCCNC(=O)[C@H](C)NC(=O)C(CC(C)C)C(C)S (single isomer, unassigned) [Example 7 Isomer C, N-[2-(1-S-Mercaptoethyl)-4-methyl-pentanoyl]-L-alanine N-butylamide]"
2,0.45 µM,"CNC(=O)[C@@H](NC(=O)C(CC(C)C)C(C)S)[C@@H](C)OCc1ccccc1 (single isomer, unassigned) [Example 6 Isomer A, N-[2-(1-Mercaptoethyl)-4-methylpentanoyl]-O-benzyl-L-threonine N-Methylamide]"
3,1 µM,"CCCCC(C(=O)N[C@@H](Cc1ccc(OC)cc1)C(=O)NC)C(C)S (single isomer, unassigned) [Example 5 Isomer B, N-[2-(1-Mercaptoethyl)hexanoyl]-O-methyl-L-tyrosine N-methyl amide]"
4,4.9 µM,"CCCCNC(=O)[C@H](C)NC(=O)C(CC(C)C)C(C)S (single isomer, unassigned) [Example 7 Isomer A, N-[2-(1-S-Mercaptoethyl)-4-methyl-pentanoyl]-L-alanine N-butylamide]"
5,2 µM,"CCCCNC(=O)[C@H](C)NC(=O)C(CC(C)C)C(C)S (single isomer, unassigned) [Example 7 Isomer B, N-[2-(1-S-Mercaptoethyl)-4-methyl-pentanoyl]-L-alanine N-butylamide]"
6,0.2 µM,"CCCCC(C(=O)N[C@@H](Cc1ccc(OC)cc1)C(=O)NC)C(C)S (single isomer, unassigned) [Example 5 Isomer A, N-[2-(1-Mercaptoethyl)hexanoyl]-O-methyl-L-tyrosine N-methyl amide]"
7,4.9 µM,"CNC(=O)[C@@H](NC(=O)C(CC(C)C)C(C)S)[C@@H](C)OCc1ccccc1 (single isomer, unassigned) [Example 6 Isomer B, N-[2-(1-Mercaptoethyl)-4-methylpentanoyl]-O-benzyl-L-threonine N-Methylamide]"

# The next lines start with the compound.
row,SMILES,IC50
1,"CNC(=O)[C@H](Cc1ccc(OC)cc1)NC(=O)C(CC(C)C)C(C)S (single isomer, unassigned) [Example 1 Isomer B1, N-[2-(1-Mercaptoethyl)-4-methylpentanoyl]-O-methyl-L-tyrosine N-Methylamide]",0.22 µM
2,"CNC(=O)[C@H](Cc1ccc(OC)cc1)NC(=O)C(CC(C)C)C(S)C(C)C (single isomer, unassigned) [Example 3 Isomer A, N-(2-(1-Mercapto-2-methylpropyl)-4-methylpentanoyl)-O-methyl-L-tyrosine N-Methyl amide]",2 µM
3,"CNC(=O)[C@H](Cc1ccc(OC)cc1)NC(=O)C(CC(C)C)C(S)c1ccccc1 (single isomer, unassigned) [Example 2 Isomer A1, N-[2-(1-S-Mercaptobenzyl)-4-methylpentanoyl]-O-methyl-L-tyrosine-N-methylamide]",0.27 µM
4,"CNC(=O)[C@H](Cc1ccc(OC)cc1)NC(=O)C(CC(C)C)C(C)S (single isomer, unassigned) [Example 1 Isomer B2, N-[2-(1-Mercaptoethyl)-4-methylpentanoyl]-O-methyl-L-tyrosine N-Methylamide]",1.5 µM
5,"CCCCCCC(C(=O)N[C@@H](Cc1ccc(OC)cc1)C(=O)NC)C(C)S (single isomer, unassigned) [Example 4 Isomer A, N-[2-(1-mercaptoethyl)octanoyl]-O-methyl-L-tyrosine N-methylamide]",5 µM
6,"CCCCCCC(C(=O)N[C@@H](Cc1ccc(OC)cc1)C(=O)NC)C(C)S (single isomer, unassigned) [Example 4 Isomer B, N-[2-(1-mercaptoethyl)octanoyl]-O-methyl-L-tyrosine N-methylamide]",140 µM
7,"CNC(=O)[C@H](Cc1ccc(OC)cc1)NC(=O)C(CC(C)C)C(S)c1ccccc1 (single isomer, unassigned) [Example 2 Isomer A2, N-[2-(1-S-Mercaptobenzyl)-4-methylpentanoyl]-O-methyl-L-tyrosine-N-methylamide]",1.71 µM
8,"CNC(=O)[C@H](Cc1ccc(OC)cc1)NC(=O)C(CC(C)C)C(S)c1ccccc1 (single isomer, unassigned) [Example 2 Isomer B2, N-[2-(1-S-Mercaptobenzyl)-4-methylpentanoyl]-O-methyl-L-tyrosine-N-methylamide]",12 µM
9,"CNC(=O)[C@H](Cc1ccc(OC)cc1)NC(=O)C(CC(C)C)C(C)S (single isomer, unassigned) [Example 1 Isomer A1, N-[2-(1-Mercaptoethyl)-4-methylpentanoyl]-O-methyl-L-tyrosine N-Methylamide]",19 µM
10,"CNC(=O)[C@H](Cc1ccc(OC)cc1)NC(=O)C(CC(C)C)C(S)C(C)C (single isomer, unassigned) [Example 3 Isomer B, N-(2-(1-Mercapto-2-methylpropyl)-4-methylpentanoyl)-O-methyl-L-tyrosine N-Methyl amide]",5 µM
11,"CNC(=O)[C@H](Cc1ccc(OC)cc1)NC(=O)C(CC(C)C)C(C)S (single isomer, unassigned) [Example 1 Isomer A2, N-[2-(1-Mercaptoethyl)-4-methylpentanoyl]-O-methyl-L-tyrosine N-Methylamide]",13 µM
12,"CNC(=O)[C@H](Cc1ccc(OC)cc1)NC(=O)C(CC(C)C)C(S)c1ccccc1 (single isomer, unassigned) [Example 2 Isomer B1, N-[2-(1-S-Mercaptobenzyl)-4-methylpentanoyl]-O-methyl-L-tyrosine-N-methylamide]",3.9 µM

# Same assay, conditions: Table 3; all compounds S stereochemistry at c; 37° C., 16 hours, pH 7.6; read-out: IC50 against human rheumatoid sinovial collagenase
row,SMILES,IC50
1,"CNC(=O)[C@H](Cc1ccc(OC)cc1)NC(=O)C(CC(C)C)C(C)S (single isomer, unassigned) [Example 1 Isomer B1, N-[2-(1-Mercaptoethyl)-4-methylpentanoyl]-O-methyl-L-tyrosine N-Methylamide]",0.22 µM
2,"CCCCNC(=O)[C@H](C)NC(=O)C(CC(C)C)C(C)S (single isomer, unassigned) [Example 7 Isomer C, N-[2-(1-S-Mercaptoethyl)-4-methyl-pentanoyl]-L-alanine N-butylamide]",1.2 µM
3,"CNC(=O)[C@@H](NC(=O)C(CC(C)C)C(C)S)[C@@H](C)OCc1ccccc1 (single isomer, unassigned) [Example 6 Isomer A, N-[2-(1-Mercaptoethyl)-4-methylpentanoyl]-O-benzyl-L-threonine N-Methylamide]",0.45 µM
4,CCCCNC(=O)[C@H](C)NC(=O)C(CS)CC(C)C (some centres unmarked) [reference compound],37 µM
5,CNC(=O)[C@@H](NC(=O)C(CS)CC(C)C)C(C)OCc1ccccc1 (some centres unmarked) [reference compound],4.8 µM
6,CNC(=O)[C@H](Cc1ccc(OC)cc1)NC(=O)C(CS)CC(C)C (some centres unmarked) [reference compound],3.6 µM

# Same assay, conditions: Table 3 footnote 4; individual determinations; read-out: IC50, individual results (footnote 4: mean of two results)
row,SMILES,IC50
1,CCCCNC(=O)[C@H](C)NC(=O)C(CS)CC(C)C (some centres unmarked) [reference compound],25 µM and 44 µM
